Assay results taken from US20240065303A1, “BITTER MASKING AGENT” (SOLUGEN, INC., priority 2020, published 2024).

What was measured:
Format in all cases: in vivo
[1] = blind taste panel: which coffee tasted less bitter; settings: Coffee 2 = 0.5 grams of sodium gluconate added to a 200 g coffee; blind study, panel of 8 individuals; FIG. 1
Procedure: The ability of a BMA to reduce the bitterness of a coffee product was investigated. Specifically, varying amounts of a BMA according to aspects described herein was added to coffee samples. In a blind study, a panel of 8 individuals were asked to determine which coffee tasted less bitter. […] Coffee 2 had 0.5 grams of sodium gluconate added to a 200 g coffee.
In a blind study, a panel of 8 individuals were asked to determine which coffee tasted less bitter. […] Coffee 2 had 0.5 grams of sodium gluconate added to a 200 g coffee.

[2] = blind tasting of chocolate chip cookies baked with sugar substitutes, with and without sodium gluconate; settings: ½ tsp of sodium gluconate for every cup of erythritol; 5 people, blind sampled
Source text: The level of sodium gluconate on bitterness reduction in baked goods was investigated. Using a commercially available recipe of chocolate chip cookies, a batch of cookies were baked and blind sampled. The batches were baked using the recipe (i) 2 sticks unsalted butter, at room temperature; (ii) 1 cup erythritol or 1 cup monk fruit sugar substitute or ½ cup stevia sugar substitute; (iii) for samples with sodium gluconate, ½ tsp of sodium gluconate was used for every cup of erythritol; (iv) 1¼ egg; (v) 1⅓ cup almond flour; (vi) 2 tsp vanilla extract; (vii) 1¼ tsp sea salt; (viii) ½ tsp baking powder; (ix) ¼ tsp baking soda; and (x) 1 bag Lily's Sweets Semi-Sweet Chocolate Chips or Milk Chocolate Baking Chips. […] Five (5) people were brought in to compare batches with and without sodium gluconate.

[3] = trained-panel taste test of caffeine solutions with and without sodium gluconate (dose response)
Procedure: The effect of sodium gluconate on bitterness as a dose response was investigated, In a blind study, six (6) trained panelists conducted a taste test with caffeine samples. […] Caffeine solutions with and without sodium gluconate were prepared on a w/v basis with deionized water. Products were dispensed into lidded soufflé cups with 3-digit codes and evaluated at 21° C. Products were evaluated in duplicate by 6 trained panelists for bitter taste amelioration following the study by Leksrisompong et al. (2012).

SMILES: O=C([O-])[C@H](O)[C@@H](O)[C@H](O)[C@H](O)CO.[Na+] [sodium gluconate]
- coffee sample chosen by the panel as less bitter [1]: less bitter, smoother taste
- participants' preference between cookie batches with and without sodium gluconate [2]: All 5 participants preferred
- bitterness reduction of caffeine samples ([3]; caffeine solutions w/v in deionized water, 21° C., 6 trained panelists in duplicate, 0 to 15 point Spectrum intensity scale, FIG. 2): significant bitterness reduction
- nature of bitterness reduction as a function of masking agent dose ([3]; percent bitterness vs masking agent dose, FIG. 3): linear
